The values below come from ChEMBL document CHEMBL1821565, “I. Novel HCV NS5B polymerase inhibitors: discovery of indole 2-carboxylic acids with C3-heterocycles” (Bioorg Med Chem Lett, 2011).

Experiment [1] in a line: Inhibition of HCV NS5B after 150 mins by [33P]-CTP incorporation assay. The arrangement: species or system Hepacivirus hominis.
The next experiment has as its system Hepatitis C virus. As to the kind of experiment: Antiviral activity against HCV subtype 1b Con1 reduction in replicon RNA level using RT-PCR by cell based replicon assay. Format: functional, organism-based, Hepacivirus hominis.
Setting [2] is: Hepatitis C virus, Con1, read-out: EC50.

Consider `O=C(O)c1c(-c2ccc(F)cc2F)c2cc(Cl)ccc2n1Cc1cccc(Cl)c1`, for which the IC50 (in general, the concentration that inhibits the measured activity by half) in experiment [1] came out at 1.1 µM. The EC50 (usually the midpoint of the concentration-response curve) in the experiment with Hepatitis C virus (setting [2]) was over 25 µM. `O=C(O)c1c(-c2cccnc2F)c2cc(Cl)ccc2n1Cc1ccc(F)cc1F` showed an IC50 in experiment [1] of 0.3 µM. Also, the EC50 in the experiment on Hepatitis C virus (setting [2]) was over 25 µM. For the molecule `O=C(O)c1c(-n2ccccc2=O)c2cc(Cl)ccc2n1Cc1ccccc1F`, in experiment [1], the IC50 came to 0.15 µM. For the same molecule, the EC50 with Hepatitis C virus (setting [2]) amounted to 19 µM. In experiment [1], `O=C(O)c1c(-c2ccc[nH]c2=O)c2cc(Cl)ccc2n1Cc1ccc(F)cc1F` displayed an IC50 of 0.035 µM. For the same molecule, in the experiment with Hepatitis C virus (setting [2]), the EC50 amounted to 10 µM. Molecule `O=C(O)c1c(-c2c[nH]c(=O)[nH]c2=O)c2cc(Cl)ccc2n1Cc1ccc(F)cc1F` registered an IC50 in experiment [1] of 0.047 µM. The EC50 in the experiment on Hepatitis C virus (setting [2]) amounted to 10 µM. For `Nc1cc(Cn2c(C(=O)O)c(-c3ccc[nH]c3=O)c3cc(Cl)ccc32)ccn1`, in that order: 0.053 µM and 4.8 µM.

With `Nc1cc(Cn2c(C(=O)O)c(-c3c[nH]c(=O)[nH]c3=O)c3cc(Cl)ccc32)ccn1`, in experiment [1], the IC50 worked out at 0.031 µM. Besides, the EC50 in the experiment on Hepatitis C virus (setting [2]) amounted to 2 µM. Consider `Nc1cc(Cn2c(C(=O)O)c(N3CCNS3(=O)=O)c3cc(Cl)ccc32)ccn1`, for which the IC50 in experiment [1] is over 20 µM. In addition, in the experiment with Hepatitis C virus, the EC50 entry is “Not Active”. In experiment [1], `Nc1cc(Cn2c(C(=O)O)c(N3CCCNS3(=O)=O)c3cc(Cl)ccc32)ccn1` displayed an IC50 of over 20 µM. Moreover, the concentration for a half-maximal effect (EC50) entry in the experiment with Hepatitis C virus is “Not Active”. `O=C(O)c1c(-c2ccc[nH]c2=O)c2cc(Br)ccc2n1Cc1ccc(F)cc1F` yielded an IC50 in experiment [1] of 0.043 µM. Besides, the EC50 in the experiment on Hepatitis C virus (setting [2]) was 7.6 µM. In experiment [1], `COc1ccc2c(c1)c(-c1ccc[nH]c1=O)c(C(=O)O)n2Cc1ccc(F)cc1F` gave an IC50 of 0.043 µM. Moreover, the EC50 with Hepatitis C virus (setting [2]) worked out at 11 µM. The like results for `CCOc1ccc2c(c1)c(-c1ccc[nH]c1=O)c(C(=O)O)n2Cc1ccc(F)cc1F` were, in that order, 0.12 µM and 20 µM. For `O=C(O)c1c(-c2ccc[nH]c2=O)c2cc(C3CC3)ccc2n1Cc1ccc(F)cc1F`, in that order: 0.56 µM and over 50 µM. Consider `Cc1ccc2c(c1)c(-c1ccc[nH]c1=O)c(C(=O)O)n2Cc1ccc(F)cc1F`, for which the IC50 in experiment [1] is 0.046 µM. For `O=C(O)c1c(-c2ccc[nH]c2=O)c2cc(C(F)(F)F)ccc2n1Cc1ccc(F)cc1F`, the IC50 in experiment [1] was determined as 0.025 µM. Also, the EC50 in the experiment with Hepatitis C virus (setting [2]) was 4.8 µM.

In experiment [1], `NC(=O)Nc1c(C(=O)O)n(Cc2cc(F)ccc2F)c2ccc(C(F)(F)F)cc12` returned an IC50 of 0.35 µM. Also, in the experiment with Hepatitis C virus (setting [2]), the EC50 is over 10 µM. `O=C(O)c1c(-n2c(=O)[nH]c3nccnc3c2=O)c2cc(C(F)(F)F)ccc2n1Cc1cc(F)ccc1F` gave an IC50 in experiment [1] of 0.27 µM. In addition, in the experiment on Hepatitis C virus (setting [2]), the EC50 is over 10 µM. `O=C(O)c1c(-n2c(=O)[nH]c3cscc3c2=O)c2cc(C(F)(F)F)ccc2n1Cc1ccc(F)cc1F` had an IC50 in experiment [1] of 0.059 µM. In addition, the EC50 with Hepatitis C virus (setting [2]) was 12 µM. The molecule `Nc1cc(Cn2c(C(=O)O)c(-n3c(=O)[nH]c4cscc4c3=O)c3cc(C(F)(F)F)ccc32)ccn1` yielded an IC50 in experiment [1] of 0.032 µM. For the same molecule, in the experiment on Hepatitis C virus (setting [2]), the EC50 came out at 1.4 µM. For `Nc1cc(Cn2c(C(=O)O)c(-c3ccc[nH]c3=O)c3cc(C(F)(F)F)ccc32)ccn1`, in that order: 0.017 µM and 0.3 µM. For `O=C(O)c1c(-c2ccccc2F)c2cc(Cl)ccc2n1Cc1ccccc1`, the EC50 in the experiment with Hepatitis C virus (setting [2]) was over 100 µM.

Molecule `O=C(O)c1[nH]c2ccc(Cl)cc2c1-c1ccccc1F` gave an IC50 in experiment [1] of 7.3 µM. Further, in the experiment with Hepatitis C virus (setting [2]), the EC50 was over 25 µM. In turn, `Cn1c(C(=O)O)c(-c2ccccc2F)c2cc(Cl)ccc21` registered an IC50 in experiment [1] of 1.3 µM. Moreover, the EC50 with Hepatitis C virus (setting [2]) was over 25 µM.

In turn, `CC(=O)n1c(C(=O)O)c(-c2ccccc2F)c2cc(Cl)ccc21` registered an IC50 in experiment [1] of 8.1 µM. Further, the EC50 in the experiment with Hepatitis C virus (setting [2]) was over 25 µM. On to `O=C(O)c1c(-c2ccccc2F)c2cc(Cl)ccc2n1C(=O)c1ccccc1`, for which the IC50 in experiment [1] worked out at 7.8 µM. The EC50 in the experiment with Hepatitis C virus (setting [2]) is over 25 µM.

`O=C(O)c1c(-c2ccccc2F)c2cc(Cl)ccc2n1Cc1ccc2ccccc2c1`: in experiment [1], the IC50 was found to be 4.4 µM. In addition, the EC50 in the experiment on Hepatitis C virus (setting [2]) is over 25 µM. The like results for `Cc1cccc(Cn2c(C(=O)O)c(-c3ccccc3F)c3cc(Cl)ccc32)c1` were, in that order, 2.5 µM and over 25 µM. As to `O=C(O)c1c(-c2ccccc2F)c2cc(Cl)ccc2n1Cc1cccc(C(F)(F)F)c1`, the IC50 in experiment [1] is over 44 µM. In the experiment with Hepatitis C virus (setting [2]), the EC50 is over 25 µM. Consider `O=C(O)c1c(-c2ccccc2F)c2cc(Cl)ccc2n1Cc1cccc(OC(F)(F)F)c1`, for which 1.8 µM corresponded to half-maximal inhibition in experiment [1] (IC50). In the experiment with Hepatitis C virus (setting [2]), the EC50 was over 25 µM. In turn, `O=C(O)c1c(-c2ccccc2F)c2cc(Cl)ccc2n1Cc1cc(F)ccc1F` displayed a half-maximal inhibitory concentration (IC50) in experiment [1] of 0.3 µM. Also, in the experiment with Hepatitis C virus (setting [2]), the EC50 is over 25 µM. The molecule `Nc1ccccc1Cn1c(C(=O)O)c(-c2ccccc2F)c2cc(Cl)ccc21` returned a concentration for half-maximal inhibition (IC50) in experiment [1] of 0.6 µM. Also, the EC50 with Hepatitis C virus (setting [2]) is over 25 µM. Regarding `Nc1cccc(Cn2c(C(=O)O)c(-c3ccccc3F)c3cc(Cl)ccc32)c1`, in experiment [1], the IC50 was found to be 0.2 µM. The EC50 in the experiment on Hepatitis C virus (setting [2]) is over 25 µM. `Cc1ccc(Cn2c(C(=O)O)c(-c3ccccc3F)c3cc(Cl)ccc32)cc1N`: it took 1.3 µM to reach half-maximal inhibition in experiment [1] (IC50). Further, in the experiment with Hepatitis C virus (setting [2]), the EC50 is over 25 µM. `CC(=O)Nc1cccc(Cn2c(C(=O)O)c(-c3ccccc3F)c3cc(Cl)ccc32)c1`: in experiment [1], the IC50 was determined as 0.6 µM. Moreover, in the experiment on Hepatitis C virus (setting [2]), the EC50 was over 25 µM.

Take `O=C(O)c1c(-c2ccccc2F)c2cc(Cl)ccc2n1Cc1cccc(NCc2ccccc2)c1`: the IC50 in experiment [1] worked out at 0.7 µM. The EC50 with Hepatitis C virus (setting [2]) was over 25 µM. On to `O=C(O)c1c(-c2ccccc2F)c2cc(Cl)ccc2n1Cc1cccnc1`, for which the IC50 in experiment [1] was determined as 1.3 µM. Also, in the experiment on Hepatitis C virus (setting [2]), the EC50 was over 25 µM. In turn, `O=C(O)c1c(-c2ccccc2F)c2cc(Cl)ccc2n1Cc1ccncc1` yielded an IC50 in experiment [1] of 1.2 µM. Moreover, in the experiment with Hepatitis C virus (setting [2]), the EC50 was over 25 µM. In experiment [1], `O=C(O)c1cc2cc(Cl)ccc2n1Cc1ccccc1F` yielded an IC50 of 17 µM. For the same molecule, in the experiment with Hepatitis C virus (setting [2]), the EC50 is over 25 µM. Consider `COc1ccccc1-c1c(C(=O)O)n(Cc2ccccc2F)c2ccc(Cl)cc12`, for which 10 µM corresponded to half-maximal inhibition in experiment [1] (IC50). Further, in the experiment on Hepatitis C virus (setting [2]), the EC50 is over 25 µM. In experiment [1], `O=C(O)c1c(-c2ccccc2O)c2cc(Cl)ccc2n1Cc1cc(F)ccc1F` yielded an IC50 of 1.4 µM. Also, the EC50 in the experiment with Hepatitis C virus (setting [2]) is over 25 µM.

`O=C(O)c1c(-c2ccccc2)c2cc(Cl)ccc2n1Cc1cccc(Cl)c1`: it took 4.2 µM to reach half-maximal inhibition in experiment [1] (IC50). The EC50 in the experiment with Hepatitis C virus (setting [2]) was over 25 µM. On to `O=C(O)c1c(-c2cccc(Cl)c2)c2cc(Cl)ccc2n1Cc1cccc(Cl)c1`, for which it took 33 µM to reach half-maximal inhibition in experiment [1] (IC50). Further, in the experiment with Hepatitis C virus (setting [2]), the EC50 is over 25 µM. For `N#Cc1cccc(-c2c(C(=O)O)n(Cc3cccc(Cl)c3)c3ccc(Cl)cc23)c1`, the midpoint of inhibition in experiment [1], the IC50, lay at 30 µM. For the same molecule, in the experiment with Hepatitis C virus (setting [2]), the EC50 is over 25 µM.

On to `O=C(O)c1c(-c2ccc3c(c2)OCO3)c2cc(Cl)ccc2n1Cc1cccc(Cl)c1`, for which 29 µM corresponded to half-maximal inhibition in experiment [1] (IC50). Besides, the EC50 in the experiment with Hepatitis C virus (setting [2]) is over 25 µM. The molecule `O=C(O)c1c(-c2ccc(F)cc2)c2cc(Cl)ccc2n1Cc1cccc(Cl)c1` yielded an IC50 in experiment [1] of over 48 µM. In addition, the EC50 in the experiment on Hepatitis C virus (setting [2]) is over 25 µM.

Molecule `O=C(O)c1c(-c2ccc(F)c(F)c2)c2cc(Cl)ccc2n1Cc1cccc(Cl)c1` registered an IC50 in experiment [1] of over 46 µM. Moreover, the EC50 with Hepatitis C virus (setting [2]) was over 25 µM.
